Assay results from patent US20090239757A1, “Control Sequences Responding to AMP and Uses Thereof” (priority 2004, published 2009).
Residues, ends and D or L forms follow the SMILES beside them.

Tested on: E. coli TOP10
Experiment: microarray transcription profile of E. coli TOP10 expressing Novispirin G10 (pDRS5-novispirin, arabinose induced) relative to control strain pBAD gIII A
Format: cell-based, Escherichia coli
Procedure: In order to obtain a transcriptional profile of E. coli expressing Novispirin G10, 2×10 mL sterile LB media (10 g/L Bactotryptone, 5 g/L Yeast extract, and 10 g/L NaCl) containing 100 mg/L ampicillin was inoculated with E. coli TOP10 harbouring pDRS5-novispirin and pBAD gIII A, respectively. These cultures were grown overnight at 37° C. at 180 rpm. The overnight cultures were diluted 1/100 into fresh sterile RM media (2% Casamino Acids, 0.2% glycerol, 1 mM MgCl2, 0.1 mM thiamine, 6 g/L Na2HPO4, 3 g/L KH2PO4.2H2O, 0.5 g/L NaCl, 0.1 g/L NH4Cl at pH 7.4) supplemented with 100 mg/L ampicillin and 0.1% arabinose. 100 mL of each culture was grown at 37° C., 240 rpm for 4.5 hours before being harvested by poured into centrifugation tubes containing 10 mL pre-frozen milliQ water and immediate centrifugation at 4200 g for 15 minutes at 4° C. Immediately hereafter, the supernatant was decanted and the cell […] was frozen at −20° C. for storage until RNA preparation was initiated.
Total RNA was isolated from the two E. coli (expressing either Novispirin G10 or a control peptide) cultures by use of the High Pure RNA Isolation kit (Roche, cat #1 828 665) according to the manufacturers instructions. Residual DNA was removed on-column with RNase-free DNase. Labelled samples were prepared from 30 μg of total bacterial RNA. Fluorescent first strand cDNA was prepared by random primed reverse transcription (Superscript II; Life Technologies) by use of random hexamers for cDNA synthesis. 2 μl (20 μg) of random primer was mixed with 15 μl (30 μg) of total RNA, incubated for 5 min at 70° C., and cooled on ice. To each sample was added 5× first strand buffer (6 μl), 0.1 M DTT (3 μl), dNTP mix (5 mM dATP, dGTP and dTTP and 2 mM dCTP) (1 μl), RNaseOut (1 μl), Superscript II reverse transcriptase (2 μl) and Cy-dCTP (3 μl). Reverse transcription was carried out at 42° C. for 1 hr. RNA was removed by addition of 10 μl NaOH (1 M) and incubation at 65° C. for 10 min. The samples were neutralised by addition of 10 μl HCl (1 M). Cy3 and Cy5 cDNA samples were mixed and immediately purified with a GFX PCR DNA and Gel Band Purification Kit (Amersham Biosciences).
Slides were pre-hybridised at 42° C. for 45 min in a solution containing 4×SSC+0.5% SDS+1% BSA and dried by centrifugation. Hybridizations were in a volume of 25 μl under a supported cover slip at 42° C. for 16-18 h at high humidity. The hybridisation mixture was labelled cDNA in a formamide-based hybridisation buffer (MWG—supplied with the pan-arrays). Cover slip and supports were gently removed (2×SSC in a wash tray) and arrays were washed by immersion into 2×SSC+0.1% SDS for 5 min, 1×SSC+0.1% SDS for 5 min, 0.5×SSC for 5 min and 1× millipore water for 10 sec and dried by centrifugation. Slides were scanned on a GMS 418 scanner to detect Cy3 and Cy5 fluorescence. Data analysis was carried out using ImaGene 5.0 and GeneSight 3.5 from BioDiscovery (www.biodiscovery.com). Two biological replicate experiments with four replicate hybridisations in each experiment were carried out for generation of data.
Pan E. coli K12 Arrays from MWG Biotech were used in this study (lot No.: 020206). The 4239 E. coli K12 specific oligonucleotide probes present on this glass-based DNA chip represent the complete Escherichia coli (K12) genome
Gene expression data was analyzed using the GeneSight 4.1.5 software from BioDiscovery. Data was prepared using local background correction, removal of flagged spots (contaminated background or signal), floor value raising data to a minimum value of 20, calculation of ratio, log(2) transformation of ratios, print-tip lowess normalization, and finally combination of replicate spot.

[1] = confidence level of 90%, relative to control strain expressing a peptide without antimicrobial activity

CC[C@H](C)[C@H](NC(=O)CNC(=O)[C@H](CCCCN)NC(=O)[C@H](CCCNC(=N)N)NC(=O)[C@@H](NC(=O)[C@@H](NC(=O)[C@H](CCCNC(=N)N)NC(=O)[C@H](CCCNC(=N)N)NC(=O)[C@H](CC(C)C)NC(=O)[C@H](CC(N)=O)NC(=O)[C@@H](N)CCCCN)[C@@H](C)CC)[C@@H](C)CC)C(=O)N[C@@H](Cc1c[nH]cn1)C(=O)N[C@H](C(=O)N[C@H](C(=O)N[C@@H](CCCCN)C(=O)N[C@@H](CCCCN)C(=O)N[C@@H](Cc1ccc(O)cc1)C(=O)NCC(=O)O)[C@@H](C)CC)[C@@H](C)CC [Novispirin G10] (H-KNLRRIIRKGIHIIKKYG-OH; N-terminus assumed)
ratio, gene tra8_1: −4.3
ratio, gene trpD: −3.4
ratio, gene tsx: −3.3
ratio, gene ugpA: 3.3
ratio, gene uvrY: 3.3
ratio, gene uxuB: 3.5
ratio, gene vacJ: 3.0
ratio, gene wcaD: −2.7
ratio, gene wcaJ: −2.8
ratio, gene wza: 3.3
ratio, gene xasA: 24.9
ratio, gene yaaI: 2.9
ratio, gene yabI: −2.6
ratio, gene yafC: −5.1
ratio, gene yagT: 3.3
ratio, gene yaiH: 6.1
ratio, gene yaiP: −3.9
ratio, gene ybaP: 8.4
ratio, gene ybaS: 8.8
ratio, gene ybaY: 9.9
ratio, gene ybbN: −2.6
ratio, gene ybbY: 4.4
ratio, gene ybdS: 4.2
ratio, gene ybeK: −3.0
ratio, gene ybeL: 3.6
ratio, gene ybfA: 3.5
ratio, gene ybgA: 4.2
ratio, gene ybhL: 9.3
ratio, gene ybhP: −5.1
ratio, gene ybhS: −2.6
ratio, gene ybiU: −3.7
ratio, gene ybiX: −2.7
ratio, gene ybjC: −2.7
ratio, gene ybjG: 5.8
ratio, gene ybjN: −2.7
ratio, gene ybjX: 5.3
ratio, gene ycaC: 7.4
ratio, gene ycbQ: −5.0
ratio, gene yccD: 4.9
ratio, gene yccM: 2.8
ratio, gene ycdQ: −2.8
ratio, gene ycfA: −3.4
ratio, gene ycfH: 5.3
ratio, gene ycfR: 2.8
ratio, gene ycgB: 4.5
ratio, gene ycgY: 3.0
ratio, gene yciE: 5.4
ratio, gene yciI: 5.1
ratio, gene yciR: 6.5
ratio, gene ycjF: −2.7
ratio, gene yddM: 3.0
ratio, gene ydhO: −2.8
ratio, gene yeaG: 12.0
ratio, gene yeaH: 2.8
ratio, gene yeaP: −2.6
ratio, gene yeaQ: 6.9
ratio, gene yedU: 3.7
ratio, gene yehT: −4.0
ratio, gene yehX: 5.6
ratio, gene yehY: 4.2
ratio, gene yehZ: 7.1
ratio, gene yeiQ: −2.7
ratio, gene yfbM: 4.9
ratio, gene yfcI: 3.1
ratio, gene yfiA: −3.6
ratio, gene yfiD: −2.6
ratio, gene ygaG: 3.8
ratio, gene ygaH: −3.3
ratio, gene ygaM: 7.9
ratio, gene ygaU: 5.1
ratio, gene ygcO: −5.7
ratio, gene ygeF: 5.2
ratio, gene ygfQ: 3.7
ratio, gene yggH: 5.7
ratio, gene ygiA: 4.2
ratio, gene ygiW: 5.2
ratio, gene yhaF: −2.6
ratio, gene yhcO: 4.4
ratio, gene yhfG: 3.4
ratio, gene yhgE: −2.9
ratio, gene yhhZ: −2.6
ratio, gene yhiE: 3.9
ratio, gene yhiF: 2.9
ratio, gene yhiW: 3.0
ratio, gene yhjX: −9.6
ratio, gene yi81_1: −3.2
ratio, gene yiaG: 10.1
ratio, gene yiaL: −2.9
ratio, gene yibI: −3.1
ratio, gene yidZ: −3.3
ratio, gene yieJ: −2.9
ratio, gene yieN: −3.8
ratio, gene yigW_1: 3.8
ratio, gene yihL: −8.0
ratio, gene yihM: −3.3
ratio, gene yihQ: 3.9
ratio, gene yijC: 4.1
ratio, gene yjbF: −3.5
ratio, gene yjbO: 8.3
ratio, gene yjcF: 3.1
ratio, gene yjdB: 4.5
ratio, gene yjiG: 3.1
ratio, gene yjiZ: 3.8
ratio, gene ykgE: −4.2
ratio, gene ykgF: −3.1
ratio, gene ylbB: −3.1
ratio, gene ylcC: −3.6
ratio, gene ylcD: 8.8
ratio, gene ymdD: −4.3
ratio, gene ymfJ: −3.4
ratio, gene ymfM: 5.1
ratio, gene ymgE: 3.9
ratio, gene yncB: 3.4
ratio, gene ynfL: 5.7
ratio, gene yoaE: 2.8
ratio, gene yodB: 6.2
ratio, gene yohC: 12.0
ratio, gene yohF: 2.8
ratio, gene yohM: 7.7
ratio, gene yqcD: −3.3
ratio, gene yqgA: −2.9
ratio, gene yqhD: −2.6
ratio, gene yqhE: 4.0
ratio, gene yqjC: 3.2
ratio, gene yqjD: 5.8
ratio, gene yqjE: 3.9
ratio, gene yqjF: 3.6
ratio, gene yqjG: 2.9
ratio, gene yrbF: 3.1
ratio, gene yrfG: −2.6
ratio, gene ysgA: 2.8
Fold, gene ais (AMP resistance): 14.1
Fold, gene b2253 (AMP resistance): 8.4
Fold, gene b2254 (AMP resistance): 5.5
Fold, gene b2256 (AMP resistance): 4.0
Fold, gene crcA (AMP resistance): 11.7
Fold, gene Asr (Acid shock): 19.2
Fold, gene Slp (Acid shock): 3.6
Fold, gene dksA (Acid shock): 4.1
Fold, gene dps (Acid shock): 4.4
Fold, gene gabP (Acid shock): 8.2
Fold, gene gabT (Acid shock): 6.5
Fold, gene gadC (Acid shock): 24.9
Fold, gene gadE (Acid shock): 3.9
Fold, gene gadW (Acid shock): 3.0
Fold, gene hdeA (Acid shock): 7.7
Fold, gene hdeB (Acid shock): 7.9
Fold, gene hdeD (Acid shock): 4.3
Fold, gene nmpC (Acid shock): −6.6
Fold, gene ybaS (Acid shock): 8.8
Fold, gene ycaC (Acid shock): 7.4
Fold, gene ydiZ (Acid shock): 9.1
Fold, gene yeaQ (Acid shock): 6.9
Fold, gene yebV (Acid shock): 6.9
Fold, gene yiaG (Acid shock): 10.1
Fold, gene amyA (Carbon metabolism): 5.8
Fold, gene b2097 (Carbon metabolism): 8.1
Fold, gene glk (Carbon metabolism): 3.4
Fold, gene sfcA (Carbon metabolism): 5.8
Fold, gene sfsA (Carbon metabolism): 6.4
Fold, gene talA (Carbon metabolism): 11.7
Fold, gene tktB (Carbon metabolism): 26.5
Fold, gene clpB (Heat shock): −3.6
Fold, gene dnaJ (Heat shock): −3.0
Fold, gene dnaK (Heat shock): −2.8
Fold, gene grpE (Heat shock): −3.0
Fold, gene hslU (Heat shock): −3.2
Fold, gene hslV (Heat shock): −3.0
Fold, gene ibpB (Heat shock): −6.5
Fold, gene lon (Heat shock): −2.9
Fold, gene mopA (Heat shock): −3.6
Fold, gene mopB (Heat shock): −9.1
Fold, gene hemL (Mg^2+-stimulon): 8.3
Fold, gene mgrB (Mg^2+-stimulon): 4.6
Fold, gene mgtA (Mg^2+-stimulon): 7.5
Fold, gene nagA (Mg^2+-stimulon): 3.7
Fold, gene phoP (Mg^2+-stimulon): 2.8
Fold, gene phoQ (Mg^2+-stimulon): 3.7
Fold, gene rstB (Mg^2+-stimulon): 3.6
Fold, gene nagB (Mg^2+-stlmulon(?)): 8.8
Fold, gene narU (Nitrogen assimilation): 15.1
Fold, gene narX (Nitrogen assimilation): −4.0
Fold, gene narY (Nitrogen assimilation): 11.0
Fold, gene narZ (Nitrogen assimilation): 4.9
Fold, gene nirB (Nitrogen assimilation): −2.9
Fold, gene nirC (Nitrogen assimilation): −3.0
Fold, gene nirD (Nitrogen assimilation): −5.7
Fold, gene nrfA (Nitrogen assimilation): −12.7
Fold, gene bolA (Osmotic shock): 13
Fold, gene dacC (Osmotic shock): 3.6
Fold, gene katE (Osmotic shock): 9.9
Fold, gene osmC (Osmotic shock): 7.2
Fold, gene osmE (Osmotic shock): 11.7
Fold, gene osmY (Osmotic shock): 6.4
Fold, gene otsA (Osmotic shock): 5.2
Fold, gene otsB (Osmotic shock): 5.6
Fold, gene proW (Osmotic shock): 7.9
Fold, gene yehX (Osmotic shock): 5.6
Fold, gene yehY (Osmotic shock): 4.2
Fold, gene yehZ (Osmotic shock): 7.1
Fold, gene pspA (Phage shock): 6.7
Fold, gene pspB (Phage shock): 6.9
Fold, gene pspC (Phage shock): 15.8
Fold, gene pspD (Phage shock): 13.5
Fold, gene pspE (Phage shock): 9.4
Fold, gene sfmC (Protein folding): 11.4
Fold, gene aer (Redox): 14.3
Fold, gene appB (Redox): 47.2
Fold, gene appC (Redox): 3.5
Fold, gene ndh (Redox): 3.1
number of genes down-regulated [1]: 144 genes
number of genes up-regulated [1]: 200 genes
